The text below walks through data of patent US6420395B1, “Azacyclooctane and heptane derivatives, their preparation and use in therapy” (Neurosearch A/S, priority 1997, dated 2002).

pIC50: −log10 of the molar value. Structures can show the parent of a compound that is named as a salt. Where two headings read alike, the source gives them in different places. Bounds are passed on as bounds.

The term pIC50 denotes the IC50 on a negative log10 scale, so that one unit is a factor of ten. In general, melting point refers to the temperature, or range, at which the solid turns liquid.

Data set [1] deals with nicotinic ACh receptors comprised of α4 and β2 subunits (3H-cytisine binding site) (Rattus norvegicus, UniProt P09483+P12390). The experiment in a line: In vitro inhibition of 3H-cytisine binding. How it is done:
In vitro inhibition of ^3H-cytisine binding
The predominant subtype with high affinity for nicotine is comprised of α4 and β2 subunits. nAChRs of the latter type can selectively be labelled by the nicotine agonist ^3H-cytisine.
Preparations are performed at 0-4° C. unless otherwise indicated. […] The homogenate is centrifuged at 27,000×g for 10 min. The supernatant is discarded and the pellet is resuspended in fresh buffer and centrifuged a second time. The final pellet is resuspended in fresh buffer (35 ml per g of original tissue) and used for binding assays.
Aliquots of 500 μl homogenate are added to 25 μl of test solution and 25 μl of ^3H-cytisine (1 nM, final concentration), mixed and incubated for 90 min at 2° C. Non-specific binding is determined using (−)-nicotne (100 μM, final concentration). After incubation the samples are added 5 ml of ice-cold buffer and poured directly onto Whatman GF/C glass fibre filters under suction and immediately washed with 2×5 ml ice-cold buffer. The amount of radioactivity on the filters is determined by conventional liquid scintillation counting. Specific binding is total binding minus non-specific binding.

Data set [2] addresses nAChR formed by the α7 subunit (3H-α-bungarotoxin binding site) (Rattus norvegicus, UniProt Q05941). The data set can be described thus: biochemical.
For data set [3] the following is noted: approximate potency relative to morphine; cited from earlier work.
Setting [4] is: rat cerebral cortex homogenate, 1 nM 3H-cytisine, 90 min at 2° C., read-out: 3H-cytisine IC50.
Setting [5] is: read-out: 3H-α-bungarotoxin IC50.

Chain of nAChR formed by the α7 subunit (3H-α-bungarotoxin binding site) (Q05941 23-502): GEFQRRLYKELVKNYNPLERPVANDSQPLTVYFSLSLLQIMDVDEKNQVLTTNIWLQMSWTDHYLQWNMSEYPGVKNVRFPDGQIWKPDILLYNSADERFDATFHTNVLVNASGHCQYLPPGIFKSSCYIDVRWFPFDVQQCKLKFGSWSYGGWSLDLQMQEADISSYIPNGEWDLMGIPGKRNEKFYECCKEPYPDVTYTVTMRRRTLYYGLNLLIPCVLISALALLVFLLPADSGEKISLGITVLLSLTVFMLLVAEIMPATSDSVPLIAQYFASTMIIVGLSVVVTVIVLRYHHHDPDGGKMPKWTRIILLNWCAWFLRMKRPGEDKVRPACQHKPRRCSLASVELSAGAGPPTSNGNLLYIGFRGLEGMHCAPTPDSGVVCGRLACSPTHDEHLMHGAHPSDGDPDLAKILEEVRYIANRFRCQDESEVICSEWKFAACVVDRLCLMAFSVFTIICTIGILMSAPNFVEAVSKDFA
Chain of nicotinic ACh receptors comprised of α4 and β2 subunits (3H-cytisine binding site) (P09483 31-630): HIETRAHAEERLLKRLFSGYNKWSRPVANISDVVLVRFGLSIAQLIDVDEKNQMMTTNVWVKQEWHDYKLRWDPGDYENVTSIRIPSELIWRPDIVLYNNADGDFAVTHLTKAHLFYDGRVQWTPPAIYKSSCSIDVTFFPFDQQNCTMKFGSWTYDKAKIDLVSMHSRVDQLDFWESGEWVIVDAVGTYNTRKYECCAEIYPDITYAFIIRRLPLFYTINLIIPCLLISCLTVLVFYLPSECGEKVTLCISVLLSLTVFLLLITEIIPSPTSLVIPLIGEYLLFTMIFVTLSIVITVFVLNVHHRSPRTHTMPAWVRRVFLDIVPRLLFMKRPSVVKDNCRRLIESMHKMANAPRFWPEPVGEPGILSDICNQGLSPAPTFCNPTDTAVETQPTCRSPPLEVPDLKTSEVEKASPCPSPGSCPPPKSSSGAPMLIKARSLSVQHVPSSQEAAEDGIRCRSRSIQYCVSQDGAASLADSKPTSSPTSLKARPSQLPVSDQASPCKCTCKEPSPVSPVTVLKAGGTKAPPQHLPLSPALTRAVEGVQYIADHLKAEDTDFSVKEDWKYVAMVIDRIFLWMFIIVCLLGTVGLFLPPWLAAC
Chain of nicotinic ACh receptors comprised of α4 and β2 subunits (3H-cytisine binding site) (P12390 25-500): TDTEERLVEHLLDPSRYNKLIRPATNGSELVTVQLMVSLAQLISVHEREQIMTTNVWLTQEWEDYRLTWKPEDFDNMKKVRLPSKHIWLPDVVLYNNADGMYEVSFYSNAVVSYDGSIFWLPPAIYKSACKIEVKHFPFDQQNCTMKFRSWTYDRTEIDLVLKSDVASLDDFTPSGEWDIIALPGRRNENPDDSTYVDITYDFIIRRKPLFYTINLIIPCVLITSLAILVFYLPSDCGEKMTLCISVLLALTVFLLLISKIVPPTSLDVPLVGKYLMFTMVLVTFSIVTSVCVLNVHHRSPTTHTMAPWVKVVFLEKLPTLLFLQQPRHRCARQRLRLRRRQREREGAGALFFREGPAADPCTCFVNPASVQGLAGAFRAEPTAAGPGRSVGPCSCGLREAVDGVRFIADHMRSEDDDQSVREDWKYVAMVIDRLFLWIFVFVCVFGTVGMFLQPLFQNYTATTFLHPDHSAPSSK

Turning to `CCSc1cncc(C2CCCCCCN2C)c1` (racemic) [Compound 5b, (R,S)-1-Methyl-2-(5-thioethyl-3-pyridyl)azacyclooctane fumaric acid salt], the pIC50 in data set [1] (setting [4]) was 5.71.
Take `c1cncc(C2CCCCCCN2)c1` (racemic) [Compound 1a, (R,S)-1-H-2-(3-pyridyl)azacyclooctane fumaric acid salt]: the pIC50 in data set [1] was 6.70; in data set [2] (setting [5]), 5.70.
Consider `CCSc1cncc(C2CCCCCCN2)c1` (racemic) [Compound 6a, (R,S)-1-H-2-(5-thioethyl-3-pyridyl)azacyclooctane], for which the pIC50 in data set [1] (setting [4]) is 6.00.
Regarding `Clc1ccc(C2CC3CCC2N3)cn1` (centres unmarked) [Epibatidine], in data set [3], the “analgesic potency, times that of morphine” value is recorded as roughly 500 times.
Consider `CCSc1cncc(C2CCCCCN2)c1` (racemic) (as salt: fumaric acid salt) [Compound 5a, (R,S)-1-H-2-(5-thioethyl-3-pyridyl)azacycloheptane fumaric acid salt], for which the melting point is 159 to 161 °C.
With `c1ccc2ncc(C3CCCCCCN3)cc2c1` (racemic) [Compound 3a, (R,S)-1-H-2-(3-quinolinyl)azacyclooctane fumaric acid salt], the pIC50 in data set [1] (setting [4]) was 5.89; in data set [2], less than 4.52.
With `c1cncc(C2CCCCCCN2)c1` (racemic) (as salt: fumaric acid salt) [Compound 1a, (R,S)-1-H-2-(3-pyridyl)azacyclooctane fumaric acid salt], the melting point was 141 to 142 °C.
In the case of `CCSc1cncc(C2CCCCCN2)c1` (racemic) [Compound 5a, (R,S)-1-H-2-(5-thioethyl-3-pyridyl)azacycloheptane fumaric acid salt], the pIC50 in data set [1] (setting [4]) is 5.37; in data set [2], less than 4.52.
In the case of `c1ccc2ncc(C3CCCCCCN3)cc2c1` (racemic) (as salt: fumaric acid salt) [Compound 3a, (R,S)-1-H-2-(3-quinolinyl)azacyclooctane fumaric acid salt], the melting point was 172 to 174 °C.
For the molecule `CN1CCCCCCC1c1cccnc1` (racemic) [Compound 1b, (R,S)-1-Methyl-2-(3-pyridyl)azacyclooctane], the pIC50 in data set [1] was 6.25; in data set [2] (setting [5]), 4.17.
Molecule `CCSc1cncc(C2CCCCCCN2C)c1` (racemic) (as salt: fumaric acid salt) [Compound 5b, (R,S)-1-Methyl-2-(5-thioethyl-3-pyridyl)azacyclooctane fumaric acid salt] yielded a melting point of 143.5 to 145.5 °C.
Regarding `c1cncc(C2=NCCCCCC2)c1` [Compound 1c, 2-(3-Pyridyl)azacyclooct-1-ene], the pIC50 in data set [1] was 7.23; in data set [2] (setting [5]), 5.85.
